Reference: patent US20030013136A1, “Human KCR1 regulation of HERG potassium channel block” (priority 2000, published 2003)

Experiments:
[1] = target: HERG (Homo sapiens, UniProt Q12809); conditions: 20 min
Protocol: (§1) The rat KCR1 cDNA was provided by Dr. Haruhiro Higashida, Kanazawa University, Japan. […] MiRP1 cDNA was provided by Dr. Steve Goldstein, (Yale University) in vector pCl-neo (Promega of Madison, Wis.).
(§2) Chinese hamster ovary K1 (CHO-K1) cells were obtained from the American Type Culture Collection (Rockville, Md.) and cultured in Ham's F-12 media (Gibco-BRL of Grand Island, N.Y.) supplemented with 10% fetal bovine serum and 1% pen-strep in a humidified, 5% CO2 incubator at 37° C. CHO-K1 cells were transiently transfected using the Lipofectamine transfection reagents and method (Gibco-BRL). When studying HERG alone or HERG+MiRP1, cells were cotransfected with pGFP-IRS (without KCR1). For experiments examining HERG+KCR1, or HERG+KCR1+MiRP1, GFP expression was obtained via the KCR1-containing pGFP-IRS plasmid. In all cases, cells displaying green fluorescence 48 to 72 hours after transfection were subjected to electrophysiologic analysis.
(§3) Potassium currents were recorded at room temperature (20-22° C.) using the whole-cell patch clamp technique. […] Drug effects were recorded in cells following a pre-drug period where control data were obtained (during pulsing), and a 4 minute drug wash-in period throughout which the cell was held at −80 mV.

[2] = target: HERG+KCR1 (Homo sapiens, UniProt Q12809); conditions: 20 min
HERG+KCR1, sequence (Q12809 whole entry): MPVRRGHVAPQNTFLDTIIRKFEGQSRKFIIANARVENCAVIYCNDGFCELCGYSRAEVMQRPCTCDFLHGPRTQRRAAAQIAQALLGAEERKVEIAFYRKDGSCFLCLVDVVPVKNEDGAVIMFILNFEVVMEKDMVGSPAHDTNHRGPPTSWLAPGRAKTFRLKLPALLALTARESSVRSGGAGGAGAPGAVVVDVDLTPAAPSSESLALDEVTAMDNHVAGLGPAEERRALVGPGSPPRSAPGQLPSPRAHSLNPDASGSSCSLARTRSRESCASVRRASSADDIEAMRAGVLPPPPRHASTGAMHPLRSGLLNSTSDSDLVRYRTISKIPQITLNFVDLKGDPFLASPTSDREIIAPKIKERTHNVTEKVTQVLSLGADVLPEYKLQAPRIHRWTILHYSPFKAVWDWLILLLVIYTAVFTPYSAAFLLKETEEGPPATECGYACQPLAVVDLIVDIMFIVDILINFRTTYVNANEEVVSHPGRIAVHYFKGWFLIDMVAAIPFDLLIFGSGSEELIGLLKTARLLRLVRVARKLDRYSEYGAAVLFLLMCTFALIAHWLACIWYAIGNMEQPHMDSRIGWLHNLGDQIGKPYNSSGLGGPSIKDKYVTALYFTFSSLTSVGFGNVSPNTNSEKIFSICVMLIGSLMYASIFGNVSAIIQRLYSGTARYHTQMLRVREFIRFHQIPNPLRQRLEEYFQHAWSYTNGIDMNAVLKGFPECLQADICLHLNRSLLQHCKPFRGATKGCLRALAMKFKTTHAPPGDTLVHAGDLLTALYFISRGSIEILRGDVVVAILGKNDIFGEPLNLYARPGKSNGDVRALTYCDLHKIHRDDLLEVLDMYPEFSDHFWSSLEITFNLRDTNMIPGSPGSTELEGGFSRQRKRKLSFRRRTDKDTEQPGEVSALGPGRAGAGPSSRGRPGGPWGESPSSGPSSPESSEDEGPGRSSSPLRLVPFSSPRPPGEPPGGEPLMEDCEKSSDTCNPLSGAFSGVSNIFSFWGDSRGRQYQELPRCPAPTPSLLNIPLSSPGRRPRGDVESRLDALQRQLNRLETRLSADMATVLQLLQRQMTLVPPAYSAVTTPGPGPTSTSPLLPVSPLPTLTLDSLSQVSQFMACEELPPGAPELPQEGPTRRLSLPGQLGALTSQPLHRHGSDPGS
Protocol: as §1, §2, §3

[3] = target: HERG/MiRP1 complex (human); assay: cell-based or functional assay
HERG/MiRP1 complex (human), sequence (A5H1P7 whole entry, one chain of several): as the sequence (Q12809 whole entry) above

HERG, sequence (Q12809 whole entry): as above

Molecule | HERG tail current remaining, % of the pre-drug control [1] | HERG tail current remaining, % of the pre-drug control [2] | fast time constant of deactivation at -120 mV, HERG+KCR1+MiRP1 (whole-cell patch clamp, CHO-K1 cells) [3] | slow time constant of deactivation at -120 mV, HERG+KCR1+MiRP1 (whole-cell patch clamp, CHO-K1 cells) [3]
CC(C)NC[C@@H](O)c1ccc(NS(C)(=O)=O)cc1 [d-sotalol] | 54±9% | 95±6% | – | –
rat KCR1 (from UniProt O88788 1-474) | – | – | 22.5 | 251
